What all share (test): Kinase selectivity, scanMAX Kinase assay panel (DiscoverX), % control at 1 uM
What all share (type): binding

For test [1], the target named is T1, scanMAX Kinase assay panel (Homo sapiens, UniProt Q08345).
T1 construct: purchased DiscoverX
As to conditions: DDR1; 1 uM; read-out: Percent Control (%). Put shortly: (§1)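 Binding across the scanMAX kinase panel was tested at 1 uM compound. % control = (compound − positive control)/(negative control − positive control) × 100; below 35 counted as active.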

For test [2], the target named is T2, scanMAX Kinase assay panel (Homo sapiens, UniProt Q9Y5S2).
T2 construct: purchased DiscoverX
To be noted: MRCKB; 1 uM; read-out: Percent Control (%). Put shortly: as §1

Test [3] deals with T3, scanMAX Kinase assay panel (Homo sapiens, UniProt Q86Y07).
T3 construct: purchased DiscoverX
As to conditions: VRK2; 1 uM; read-out: Percent Control (%). Put shortly: as §1

In test [4] the target is T4, scanMAX Kinase assay panel (Homo sapiens, UniProt Q9UPZ9).
T4 construct: purchased DiscoverX
T4 sequence (Q9UPZ9 1-632): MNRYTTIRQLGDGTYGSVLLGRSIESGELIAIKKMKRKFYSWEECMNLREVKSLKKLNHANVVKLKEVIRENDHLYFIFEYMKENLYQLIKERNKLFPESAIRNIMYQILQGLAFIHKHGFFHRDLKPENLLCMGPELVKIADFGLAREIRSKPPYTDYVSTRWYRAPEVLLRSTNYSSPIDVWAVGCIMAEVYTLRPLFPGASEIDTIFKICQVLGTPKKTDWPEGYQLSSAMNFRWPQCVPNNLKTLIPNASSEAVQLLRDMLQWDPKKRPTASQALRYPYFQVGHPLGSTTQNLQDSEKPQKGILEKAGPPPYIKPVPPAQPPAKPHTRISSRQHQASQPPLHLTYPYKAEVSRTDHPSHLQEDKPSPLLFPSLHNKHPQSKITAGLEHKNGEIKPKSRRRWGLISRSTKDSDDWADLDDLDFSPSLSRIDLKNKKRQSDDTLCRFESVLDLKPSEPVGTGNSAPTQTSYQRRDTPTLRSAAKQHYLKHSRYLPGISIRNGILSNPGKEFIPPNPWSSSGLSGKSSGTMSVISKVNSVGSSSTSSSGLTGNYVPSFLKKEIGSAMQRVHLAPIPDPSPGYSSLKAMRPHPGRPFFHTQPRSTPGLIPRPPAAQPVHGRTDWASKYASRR
As to conditions: ICK; 1 uM; read-out: Percent Control (%). Put shortly: as §1

The target in test [5] is T5, scanMAX Kinase assay panel (Homo sapiens, UniProt Q9UBF8).
T5 construct: purchased DiscoverX
As to conditions: PIK4CB; 1 uM; read-out: Percent Control (%). In short, it runs like this:
as §1

Test [6] deals with T6, scanMAX Kinase assay panel (Homo sapiens, UniProt Q9UIK4).
T6 construct: purchased DiscoverX
To be noted: DAPK2; 1 uM; read-out: Percent Control (%). In short, it runs like this:
as §1

For test [7], the target named is T7, scanMAX Kinase assay panel (Homo sapiens, UniProt O14976).
T7 construct: purchased DiscoverX
T7 sequence (O14976 1-1311): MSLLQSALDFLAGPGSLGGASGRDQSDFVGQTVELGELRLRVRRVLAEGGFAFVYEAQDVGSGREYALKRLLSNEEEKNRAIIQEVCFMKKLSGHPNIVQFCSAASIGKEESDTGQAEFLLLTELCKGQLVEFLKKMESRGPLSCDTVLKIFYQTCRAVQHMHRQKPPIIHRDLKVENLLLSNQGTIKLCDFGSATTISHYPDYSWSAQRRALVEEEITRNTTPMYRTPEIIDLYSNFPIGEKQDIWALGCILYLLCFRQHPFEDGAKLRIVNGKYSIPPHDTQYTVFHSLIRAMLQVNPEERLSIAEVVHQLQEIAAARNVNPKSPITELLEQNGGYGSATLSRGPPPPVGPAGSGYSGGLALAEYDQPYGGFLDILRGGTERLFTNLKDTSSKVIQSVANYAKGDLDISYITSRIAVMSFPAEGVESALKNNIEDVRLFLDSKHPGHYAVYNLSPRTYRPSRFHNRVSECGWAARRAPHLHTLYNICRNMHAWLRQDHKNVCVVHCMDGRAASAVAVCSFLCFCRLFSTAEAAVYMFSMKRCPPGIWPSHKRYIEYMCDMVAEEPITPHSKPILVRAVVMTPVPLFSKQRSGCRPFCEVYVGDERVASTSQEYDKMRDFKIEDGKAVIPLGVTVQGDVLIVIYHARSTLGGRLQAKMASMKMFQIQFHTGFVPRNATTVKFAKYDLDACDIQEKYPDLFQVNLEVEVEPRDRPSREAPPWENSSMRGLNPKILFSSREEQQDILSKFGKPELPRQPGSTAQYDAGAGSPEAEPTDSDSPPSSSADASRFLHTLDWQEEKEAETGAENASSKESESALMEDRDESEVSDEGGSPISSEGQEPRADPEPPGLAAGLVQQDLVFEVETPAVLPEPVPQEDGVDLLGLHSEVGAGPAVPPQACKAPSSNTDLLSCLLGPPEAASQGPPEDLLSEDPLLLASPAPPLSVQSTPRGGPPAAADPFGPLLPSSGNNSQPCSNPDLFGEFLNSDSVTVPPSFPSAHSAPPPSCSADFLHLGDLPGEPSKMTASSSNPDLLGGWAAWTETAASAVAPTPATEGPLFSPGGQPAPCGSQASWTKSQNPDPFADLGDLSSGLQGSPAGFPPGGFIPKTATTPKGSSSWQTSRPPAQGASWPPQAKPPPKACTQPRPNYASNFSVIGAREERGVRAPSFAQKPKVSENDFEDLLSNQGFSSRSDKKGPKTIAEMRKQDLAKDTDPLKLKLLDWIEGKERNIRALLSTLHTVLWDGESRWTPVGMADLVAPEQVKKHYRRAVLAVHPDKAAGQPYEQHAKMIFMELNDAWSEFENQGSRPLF
As to conditions: GAK; 1 uM; read-out: Percent Control (%). Put shortly:
as §1

Molecules are shown by their SMILES.

T3 sequence (Q86Y07 whole entry): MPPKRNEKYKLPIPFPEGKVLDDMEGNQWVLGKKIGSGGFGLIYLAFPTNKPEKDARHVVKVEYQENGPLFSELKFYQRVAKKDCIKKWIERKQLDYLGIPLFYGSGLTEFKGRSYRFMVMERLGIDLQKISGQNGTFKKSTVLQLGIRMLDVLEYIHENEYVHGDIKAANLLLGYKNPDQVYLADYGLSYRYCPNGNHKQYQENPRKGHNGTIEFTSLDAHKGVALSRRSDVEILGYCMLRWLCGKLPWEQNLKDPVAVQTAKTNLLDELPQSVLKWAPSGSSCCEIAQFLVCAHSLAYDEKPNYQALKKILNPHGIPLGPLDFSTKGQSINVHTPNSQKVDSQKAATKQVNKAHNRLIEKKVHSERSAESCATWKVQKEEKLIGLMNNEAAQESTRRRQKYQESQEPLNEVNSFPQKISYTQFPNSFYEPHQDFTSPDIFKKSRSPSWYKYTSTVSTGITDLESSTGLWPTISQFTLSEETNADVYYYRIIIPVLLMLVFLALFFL
T1 sequence (Q08345 19-913): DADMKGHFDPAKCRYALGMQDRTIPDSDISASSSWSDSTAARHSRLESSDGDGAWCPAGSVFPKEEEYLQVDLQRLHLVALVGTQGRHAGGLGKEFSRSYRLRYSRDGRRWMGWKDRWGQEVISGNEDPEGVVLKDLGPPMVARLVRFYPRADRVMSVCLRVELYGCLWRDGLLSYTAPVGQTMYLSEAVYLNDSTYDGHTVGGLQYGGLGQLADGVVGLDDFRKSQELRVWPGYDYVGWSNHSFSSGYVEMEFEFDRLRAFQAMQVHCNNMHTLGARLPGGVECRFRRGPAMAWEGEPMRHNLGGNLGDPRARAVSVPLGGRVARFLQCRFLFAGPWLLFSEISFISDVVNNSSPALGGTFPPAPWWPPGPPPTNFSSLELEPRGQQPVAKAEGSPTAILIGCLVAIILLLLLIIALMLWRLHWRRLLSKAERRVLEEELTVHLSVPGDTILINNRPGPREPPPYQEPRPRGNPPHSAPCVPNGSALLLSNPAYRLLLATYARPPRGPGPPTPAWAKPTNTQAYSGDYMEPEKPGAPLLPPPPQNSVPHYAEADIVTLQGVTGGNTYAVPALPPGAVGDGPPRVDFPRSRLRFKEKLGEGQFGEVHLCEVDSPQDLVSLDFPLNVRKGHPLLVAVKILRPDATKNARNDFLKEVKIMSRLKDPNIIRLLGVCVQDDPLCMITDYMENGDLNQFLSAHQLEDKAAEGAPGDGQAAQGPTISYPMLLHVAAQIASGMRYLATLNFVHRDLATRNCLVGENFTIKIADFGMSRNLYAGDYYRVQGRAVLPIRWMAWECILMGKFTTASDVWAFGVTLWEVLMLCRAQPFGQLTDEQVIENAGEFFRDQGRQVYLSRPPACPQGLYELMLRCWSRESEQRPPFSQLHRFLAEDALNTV
T6 sequence (Q9UIK4 whole entry): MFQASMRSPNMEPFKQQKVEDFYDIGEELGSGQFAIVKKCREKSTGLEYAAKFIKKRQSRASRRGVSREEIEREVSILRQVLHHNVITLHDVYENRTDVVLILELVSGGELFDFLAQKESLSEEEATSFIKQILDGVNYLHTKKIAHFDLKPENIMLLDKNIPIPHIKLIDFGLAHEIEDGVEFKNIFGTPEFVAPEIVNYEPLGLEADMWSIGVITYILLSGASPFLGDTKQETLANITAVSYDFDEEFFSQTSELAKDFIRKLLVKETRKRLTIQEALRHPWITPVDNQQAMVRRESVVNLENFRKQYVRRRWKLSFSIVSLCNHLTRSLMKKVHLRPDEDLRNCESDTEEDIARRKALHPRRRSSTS
T2 sequence (Q9Y5S2 whole entry): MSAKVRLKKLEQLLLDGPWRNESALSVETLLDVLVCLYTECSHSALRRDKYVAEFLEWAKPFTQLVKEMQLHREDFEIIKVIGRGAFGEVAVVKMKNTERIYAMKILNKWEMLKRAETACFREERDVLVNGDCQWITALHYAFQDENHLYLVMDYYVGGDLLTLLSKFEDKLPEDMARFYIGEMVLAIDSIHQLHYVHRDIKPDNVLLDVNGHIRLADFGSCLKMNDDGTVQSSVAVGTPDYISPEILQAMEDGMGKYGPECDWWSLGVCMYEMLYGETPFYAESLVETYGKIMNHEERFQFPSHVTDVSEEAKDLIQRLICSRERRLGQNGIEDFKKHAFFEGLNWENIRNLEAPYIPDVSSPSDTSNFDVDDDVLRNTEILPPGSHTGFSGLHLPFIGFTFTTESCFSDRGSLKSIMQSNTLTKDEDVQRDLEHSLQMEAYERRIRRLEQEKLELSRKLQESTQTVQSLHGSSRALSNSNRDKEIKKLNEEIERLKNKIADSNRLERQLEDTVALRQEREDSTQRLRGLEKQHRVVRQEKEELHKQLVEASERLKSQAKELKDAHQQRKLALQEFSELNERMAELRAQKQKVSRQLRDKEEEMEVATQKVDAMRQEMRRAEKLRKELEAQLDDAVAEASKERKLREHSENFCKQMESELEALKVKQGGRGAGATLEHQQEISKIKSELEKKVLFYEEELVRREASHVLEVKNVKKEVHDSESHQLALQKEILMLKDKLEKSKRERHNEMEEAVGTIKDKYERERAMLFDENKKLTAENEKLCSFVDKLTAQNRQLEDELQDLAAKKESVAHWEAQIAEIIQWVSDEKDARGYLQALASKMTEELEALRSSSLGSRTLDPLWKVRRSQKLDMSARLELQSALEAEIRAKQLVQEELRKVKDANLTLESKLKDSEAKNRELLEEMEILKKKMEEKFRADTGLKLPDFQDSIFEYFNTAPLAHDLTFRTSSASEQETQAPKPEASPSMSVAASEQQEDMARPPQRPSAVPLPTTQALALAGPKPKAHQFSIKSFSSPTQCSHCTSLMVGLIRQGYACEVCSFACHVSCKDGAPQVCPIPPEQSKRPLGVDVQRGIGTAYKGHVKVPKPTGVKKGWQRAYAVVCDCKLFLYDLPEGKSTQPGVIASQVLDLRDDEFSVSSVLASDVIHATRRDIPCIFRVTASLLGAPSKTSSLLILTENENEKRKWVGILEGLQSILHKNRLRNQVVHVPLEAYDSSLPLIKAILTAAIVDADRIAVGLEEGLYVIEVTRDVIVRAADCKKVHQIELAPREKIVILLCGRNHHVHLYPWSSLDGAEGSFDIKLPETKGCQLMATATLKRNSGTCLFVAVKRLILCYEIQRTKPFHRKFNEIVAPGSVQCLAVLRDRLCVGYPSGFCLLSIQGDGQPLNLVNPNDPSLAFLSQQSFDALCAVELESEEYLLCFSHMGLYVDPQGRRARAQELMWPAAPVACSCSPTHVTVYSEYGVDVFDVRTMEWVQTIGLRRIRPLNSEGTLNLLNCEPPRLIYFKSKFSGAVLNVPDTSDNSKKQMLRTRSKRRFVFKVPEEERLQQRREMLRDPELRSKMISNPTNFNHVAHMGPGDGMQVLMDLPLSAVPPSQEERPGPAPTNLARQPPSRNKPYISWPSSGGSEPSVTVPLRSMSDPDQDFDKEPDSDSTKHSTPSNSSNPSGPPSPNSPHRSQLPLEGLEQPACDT
T5 sequence (Q9UBF8 whole entry): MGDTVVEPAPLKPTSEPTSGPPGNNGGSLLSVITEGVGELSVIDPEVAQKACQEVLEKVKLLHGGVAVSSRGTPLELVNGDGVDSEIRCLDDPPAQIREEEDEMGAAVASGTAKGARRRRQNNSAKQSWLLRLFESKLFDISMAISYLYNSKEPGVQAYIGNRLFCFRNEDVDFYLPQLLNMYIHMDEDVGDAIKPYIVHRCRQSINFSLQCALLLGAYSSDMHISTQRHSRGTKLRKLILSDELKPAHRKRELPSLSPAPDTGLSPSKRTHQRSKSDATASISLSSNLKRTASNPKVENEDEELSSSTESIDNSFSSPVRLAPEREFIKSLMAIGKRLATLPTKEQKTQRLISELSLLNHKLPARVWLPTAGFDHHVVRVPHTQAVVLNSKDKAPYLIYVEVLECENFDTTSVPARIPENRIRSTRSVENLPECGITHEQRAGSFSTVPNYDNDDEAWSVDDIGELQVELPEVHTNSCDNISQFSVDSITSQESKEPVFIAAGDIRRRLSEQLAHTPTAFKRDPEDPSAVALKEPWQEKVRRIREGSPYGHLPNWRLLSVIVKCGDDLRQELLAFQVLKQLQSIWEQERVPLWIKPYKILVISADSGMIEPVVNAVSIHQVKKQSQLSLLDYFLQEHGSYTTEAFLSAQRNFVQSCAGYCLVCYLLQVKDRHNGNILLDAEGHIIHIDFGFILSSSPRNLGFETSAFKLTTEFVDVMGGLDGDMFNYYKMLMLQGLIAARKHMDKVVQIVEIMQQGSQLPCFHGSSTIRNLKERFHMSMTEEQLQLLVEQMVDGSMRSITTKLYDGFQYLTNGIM

Turning to `Cc1ccc(C(=O)Nc2ccc(CN3CCN(C)CC3)c(C(F)(F)F)c2)cc1C#Cc1cnc2c(Nc3cnn(C)c3)cccn12` [Example 1, 4-methyl-3-((8-((1-methyl-1H-pyrazol-4-yl)amino)imidazo[1,2-a]pyridin-3-yl)ethynyl)-N-(4-((4-methylpiperazin-1-yl)methyl)-3-(trifluoromethyl)phenyl)benzamide], the remaining binding at 1 µM in test [1] was found to be 0%; in test [2], 99%; in test [3], 86%; in test [4], 58%; in test [5], 88%; in test [6], 82%. The remaining binding at 1 µM in test [7] is 7%.
In the case of `Cc1cn(-c2cc(NC(=O)c3ccc(C)c(C#Cc4cnc5c(Nc6cnn(C)c6)cccn45)c3)cc(C(F)(F)F)c2)cn1` [Example 12, 4-methyl-N-(3-(4-methyl-1H-imidazol-1-yl)-5-(trifluoromethyl)phenyl)-3-((8-((1-methyl-1H-pyrazol-4-yl)amino)imidazo[1,2-a]pyridin-3-yl)ethynyl)benzamide], the remaining binding at 1 µM in test [1] turned out to be 7%; in test [2], 94%; in test [3], 100%; in test [4], 100%; in test [5] it was 100%; in test [6], 97%. Further, the remaining binding at 1 µM in test [7] is 87%.
Regarding `Cc1ccc(NC(=O)C2(C(=O)Nc3ccc(F)cc3)CC2)cc1C#Cc1cnc2c(Nc3cnn(C(C)C)c3)cccn12` [Example 78], the remaining binding at 1 µM in test [1] was found to be 1%; in test [2], 100%; in test [3] it was 100%; in test [4], 100%; in test [5] it was 99%; in test [6], 100%. Also, in test [7], the remaining binding at 1 µM came to 100%.
